Results published in the supplement of paper PMC10307832.

Key:
Experiment in all cases: relative viability (nuclei count vs DMSO), 5 days (fraction); higher = more cells survive
[1] = compound: O=C(O)c1ccc2c(c1)nc(Nc1cccc(Cl)c1)c1ccncc12 [Silmitasertib] + CC(=O)Nc1cccc(-n2c(=O)n(C3CC3)c(=O)c3c(Nc4ccc(I)cc4F)n(C)c(=O)c(C)c32)c1 [Trametinib] (partner 0.02 µM)
In short: (§1)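 Relative viability is defined as nuclei in treated wells over nuclei in vehicle wells. Duplicate plates were run and medians reported. Lung cancer cell lines in 1536-well plates were dosed by pin tool one day after seeding, with one drug or with a fixed anchor-drug dose plus five library-drug doses (not always all listed) in √10 steps, and nuclei were counted after 5 days.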

[2] = compound: O=C(O)c1ccc2c(c1)nc(Nc1cccc(Cl)c1)c1ccncc12 [Silmitasertib] + CC1(C)CCC(c2ccc(Cl)cc2)=C(CN2CCN(c3ccc(C(=O)NS(=O)(=O)c4ccc(N[C@H](CCN5CCOCC5)CSc5ccccc5)c(S(=O)(=O)C(F)(F)F)c4)cc3)CC2)C1 [Navitoclax] (partner 0.5 µM)
In short: as §1

Silmitasertib + OSI-027 = compound: O=C(O)c1ccc2c(c1)nc(Nc1cccc(Cl)c1)c1ccncc12 [Silmitasertib] + COc1cccc2cc(-c3nc([C@H]4CC[C@H](C(=O)O)CC4)n4ncnc(N)c34)[nH]c12 [OSI-027] (partner 0.5 µM)
In short: as §1

[3] = compound: O=C(O)c1ccc2c(c1)nc(Nc1cccc(Cl)c1)c1ccncc12 [Silmitasertib] + Cc1cc(Nc2cc(N3CCN(C)CC3)nc(Sc3ccc(NC(=O)C4CC4)cc3)n2)n[nH]1 [Tozasertib] (partner 0.1 µM)
In short: as §1

Silmitasertib + Olaparib = compound: O=C(O)c1ccc2c(c1)nc(Nc1cccc(Cl)c1)c1ccncc12 [Silmitasertib] + O=C(c1cc(Cc2n[nH]c(=O)c3ccccc23)ccc1F)N1CCN(C(=O)C2CC2)CC1 [Olaparib] (partner 8 µM)
In short: as §1

RERF-LC-KJ was tested, and the relative viability ([1]; first compound 0.04 µM) was 0.926, the relative viability ([1]; first compound 0.4 µM) was 0.722 and the relative viability ([1]; first compound 1.265 µM) was 0.661. It also gave a relative viability ([1]; first compound 4 µM) of 0.541, a relative viability ([2]; first compound 0.04 µM) of 0.863 and a relative viability ([2]; first compound 0.4 µM) of 0.85. For the same cell line, the relative viability ([2]; first compound 1.265 µM) was 0.782, the relative viability ([2]; first compound 4 µM) was 0.436 and the relative viability (Silmitasertib + OSI-027; first compound 0.04 µM) was 0.627. The relative viability (Silmitasertib + OSI-027; first compound 0.4 µM) was 0.484, the relative viability (Silmitasertib + OSI-027; first compound 1.265 µM) was 0.41 and the relative viability (Silmitasertib + OSI-027; first compound 4 µM) was 0.373. It also gave a relative viability ([3]; first compound 0.04 µM) of 0.546, a relative viability ([3]; first compound 0.4 µM) of 0.531 and a relative viability ([3]; first compound 1.265 µM) of 0.382. For the same cell line, the relative viability ([3]; first compound 4 µM) was 0.248, the relative viability (Silmitasertib + Olaparib; first compound 0.04 µM) was 0.909 and the relative viability (Silmitasertib + Olaparib; first compound 0.4 µM) was 0.829. For the same cell line, the relative viability (Silmitasertib + Olaparib; first compound 1.265 µM) was 0.785 and the relative viability (Silmitasertib + Olaparib; first compound 4 µM) was 0.74.

In the case of SK-LU-1, the relative viability ([1]; first compound 0.04 µM) is reported as 0.733, the relative viability ([1]; first compound 0.4 µM) is reported as 0.46 and the relative viability ([1]; first compound 1.265 µM) is reported as 0.298. It also gave a relative viability ([1]; first compound 4 µM) of 0.289, a relative viability ([2]; first compound 0.04 µM) of 0.984 and a relative viability ([2]; first compound 0.4 µM) of 0.532. The relative viability ([2]; first compound 1.265 µM) was 0.671, the relative viability ([2]; first compound 4 µM) was 0.217 and the relative viability (Silmitasertib + OSI-027; first compound 0.04 µM) was 0.432. The relative viability (Silmitasertib + OSI-027; first compound 0.4 µM) was 0.248, the relative viability (Silmitasertib + OSI-027; first compound 1.265 µM) was 0.223 and the relative viability (Silmitasertib + OSI-027; first compound 4 µM) was 0.197. For the same cell line, the relative viability ([3]; first compound 0.04 µM) was 0.358, the relative viability ([3]; first compound 0.4 µM) was 0.315 and the relative viability ([3]; first compound 1.265 µM) was 0.221. The relative viability ([3]; first compound 4 µM) was 0.195, the relative viability (Silmitasertib + Olaparib; first compound 0.04 µM) was 0.45 and the relative viability (Silmitasertib + Olaparib; first compound 0.4 µM) was 0.267. The relative viability (Silmitasertib + Olaparib; first compound 1.265 µM) was 0.308 and the relative viability (Silmitasertib + Olaparib; first compound 4 µM) was 0.225.

Cell Line SK-MES-1 has a relative viability ([1]; first compound 0.04 µM) of 0.589, a relative viability ([1]; first compound 0.4 µM) of 0.477 and a relative viability ([1]; first compound 1.265 µM) of 0.535. It also gave a relative viability ([1]; first compound 4 µM) of 0.469, a relative viability ([2]; first compound 0.04 µM) of 1.27 and a relative viability ([2]; first compound 0.4 µM) of 1.1. For the same cell line, the relative viability ([2]; first compound 1.265 µM) was 1.15, the relative viability ([2]; first compound 4 µM) was 0.576 and the relative viability (Silmitasertib + OSI-027; first compound 0.04 µM) was 0.675. For the same cell line, the relative viability (Silmitasertib + OSI-027; first compound 0.4 µM) was 0.558, the relative viability (Silmitasertib + OSI-027; first compound 1.265 µM) was 0.435 and the relative viability (Silmitasertib + OSI-027; first compound 4 µM) was 0.236. The relative viability ([3]; first compound 0.04 µM) was 1.07, the relative viability ([3]; first compound 0.4 µM) was 1.02 and the relative viability ([3]; first compound 1.265 µM) was 0.542. It also gave a relative viability ([3]; first compound 4 µM) of 0.159, a relative viability (Silmitasertib + Olaparib; first compound 0.04 µM) of 0.777 and a relative viability (Silmitasertib + Olaparib; first compound 0.4 µM) of 0.623. The relative viability (Silmitasertib + Olaparib; first compound 1.265 µM) was 0.289 and the relative viability (Silmitasertib + Olaparib; first compound 4 µM) was 0.207.

With SW 1573 the relative viability ([1]; first compound 0.04 µM) was 0.529, the relative viability ([1]; first compound 0.4 µM) was 0.54 and the relative viability ([1]; first compound 1.265 µM) was 0.478. It also gave a relative viability ([1]; first compound 4 µM) of 0.439, a relative viability ([2]; first compound 0.04 µM) of 1.07 and a relative viability ([2]; first compound 0.4 µM) of 1.02. The relative viability ([2]; first compound 1.265 µM) was 0.824, the relative viability ([2]; first compound 4 µM) was 0.815 and the relative viability (Silmitasertib + OSI-027; first compound 0.04 µM) was 0.648. The relative viability (Silmitasertib + OSI-027; first compound 0.4 µM) was 0.616, the relative viability (Silmitasertib + OSI-027; first compound 1.265 µM) was 0.548 and the relative viability (Silmitasertib + OSI-027; first compound 4 µM) was 0.319. For the same cell line, the relative viability ([3]; first compound 0.04 µM) was 0.199, the relative viability ([3]; first compound 0.4 µM) was 0.185 and the relative viability ([3]; first compound 1.265 µM) was 0.231. For the same cell line, the relative viability ([3]; first compound 4 µM) was 0.187, the relative viability (Silmitasertib + Olaparib; first compound 0.04 µM) was 0.552 and the relative viability (Silmitasertib + Olaparib; first compound 0.4 µM) was 0.457. The relative viability (Silmitasertib + Olaparib; first compound 1.265 µM) was 0.428 and the relative viability (Silmitasertib + Olaparib; first compound 4 µM) was 0.427.

In the case of UMC-11, the relative viability ([1]; first compound 0.04 µM) is reported as 0.73, the relative viability ([1]; first compound 0.4 µM) is reported as 0.65 and the relative viability ([1]; first compound 1.265 µM) is reported as 0.353. The relative viability ([1]; first compound 4 µM) was 0.403, the relative viability ([2]; first compound 0.04 µM) was 0.337 and the relative viability ([2]; first compound 0.4 µM) was 0.278. For the same cell line, the relative viability ([2]; first compound 1.265 µM) was 0.207, the relative viability ([2]; first compound 4 µM) was 0.162 and the relative viability (Silmitasertib + OSI-027; first compound 0.04 µM) was 0.491. It also gave a relative viability (Silmitasertib + OSI-027; first compound 0.4 µM) of 0.485, a relative viability (Silmitasertib + OSI-027; first compound 1.265 µM) of 0.438 and a relative viability (Silmitasertib + OSI-027; first compound 4 µM) of 0.402. The relative viability ([3]; first compound 0.04 µM) was 0.199, the relative viability ([3]; first compound 0.4 µM) was 0.218 and the relative viability ([3]; first compound 1.265 µM) was 0.184. The relative viability ([3]; first compound 4 µM) was 0.16, the relative viability (Silmitasertib + Olaparib; first compound 0.04 µM) was 0.335 and the relative viability (Silmitasertib + Olaparib; first compound 0.4 µM) was 0.298. It also gave a relative viability (Silmitasertib + Olaparib; first compound 1.265 µM) of 0.301 and a relative viability (Silmitasertib + Olaparib; first compound 4 µM) of 0.26.
